Measured values taken from patent US10005774B2, “Syk inhibitors” (Gilead Sciences, Inc., priority 2013, dated 2018).

biological target: Syk (Homo sapiens, UniProt P43405); assay: High Throughput Syk Biochemical Assay (KinEASE TR-FRET); conditions: TABLE D, 20 μM ATP, 1 μM biotinylated peptide, 0.015 nM Syk, 30 min at room temperature, read-out: IC50
Procedure: High Throughput Syk Biochemical Assay
Syk activity was measured using KinEASE (Cisbio), a time-resolved fluorescence resonance energy transfer (TR-FRET) immunoassay. In this assay. Syk-catalyzes the phosporylation of a XL665-labeled peptide substrate. Europium conjugated phospho-tyrosine specific antibody binds the resulting phosphorylated peptide. Formation of phosphorylated peptide is quantified by TR-FRET with Europium as the donor and XL665 the acceptor in a 2-step endpoint assay. In brief, test compounds serially diluted in DMSO were delivered into Corning white, low volume, non-binding 384 well plates using the Echo 550 acoustic liquid dispenser (Labcyte®). Syk enzyme and substrates were dispensed into assay plates using a Multi-Flo (Bio-Tek Instruments). […] Percent inhibition was calculated as follows: % Inhibition=100×(RatioSample−Ratio0% Inhibition)/(Ratio100% Inhibition−Ratio0% Inhibition)

Question: With `Cc1nn(C)c2ccc(-c3cc4ncn(C)c4c(O[C@H](C)[C@H]4CNC(=O)C4)n3)cc12` [(R)-4-((R)-1-((6-(1,3-dimethyl-1H-indazol-5-yl)-3-methyl-3H-imidazo[4,5-c]pyridin-4-yl)oxy)ethyl)pyrrolidin-2-one] as the compound, how does the IC50 read?
Answer: 10.5 nM

Question: For `COc1ccc(-c2cc3ncn(C4COC4)c3c(O[C@H](C)[C@H]3CNC(=O)C3)n2)cc1OC` [(R)-4-((R)-1-(6-(3,4-dimethoxyphenyl)-3-(oxetan-3-yl)-3H-imidazo[4,5-c]pyridin-4-yloxy)ethyl)pyrrolidin-2-one], which IC50 is on record?
Answer: 54.1 nM

Question: For `C[C@@H](Oc1nc(-c2cnn(C)c2)cc2ncn(C)c12)[C@H]1CNC(=O)C1` [(R)-4-((R)-1-(3-methyl-6-(1-methyl-1H-pyrazol-4-yl)-3H-imidazo[4,5-c]pyridin-4-yloxy)ethyl)pyrrolidin-2-one], which IC50 is on record?
Answer: 24.3 nM

Question: With `Cc1cc(-c2cc3ncn(C)c3c(O[C@H](C)[C@H]3CNC(=O)C3)n2)ccc1N(C)C` [(R)-4-((R)-1-(6-(4-(dimethylamino)-3-methylphenyl)-3-methyl-3H-imidazo[4,5-c]pyridin-4-yloxy)ethyl)pyrrolidin-2-one] as the compound, how does the IC50 read?
Answer: 5.31 nM

Question: With `COc1ccc(-c2cc(O[C@H](C)[C@H]3CNC(=O)C3)c3scnc3c2)cc1OC` (stereo in doubt) [(R)-4-((R)-1-((5-(3,4-dimethoxyphenyl)benzo[d]thiazol-7-yl)oxy)ethyl)pyrrolidin-2-one] as the compound, how does the IC50 read?
Answer: 5 nM

Question: For `COc1ccc(-c2cc3nc(C)n(C(F)F)c3c(O[C@H](C)[C@H]3CNC(=O)C3)n2)cc1OC` [(R)-4-((R)-1-(3-(difluoromethyl)-6-(3,4-dimethoxyphenyl)-2-methyl-3H-imidazo[4,5-c]pyridin-4-yloxy)ethyl)pyrrolidin-2-one], which IC50 is on record?
Answer: 50.8 nM

Question: Which IC50 does the source give for `C[C@@H](Oc1cc(-c2ccc(N3CCOCC3)cc2)cn2ncc(Cl)c12)[C@H]1CNC(=O)C1` [(R)-4-((R)-1-((3-chloro-6-(4-morpholinophenyl)pyrazolo[1,5-a]pyridin-4-yl)oxy)ethyl)pyrrolidin-2-one] here?
Answer: 0.31 nM

Question: For `C[C@@H](Oc1cc(-c2ccc(N3CCOCC3)cc2)cn2nccc12)[C@H]1CNC(=O)C1` [(R)-4-((R)-1-((6-(4-morpholinophenyl)pyrazolo[1,5-a]pyridin-4-yl)oxy)ethyl)pyrrolidin-2-one], which IC50 is on record?
Answer: 7.85 nM

Question: With `COc1ccc(-c2cc3nc[nH]c3c(O[C@H](C)[C@H]3CNC(=O)C3)n2)cc1OC` [(R)-4-((R)-1-(6-(3,4-dimethoxyphenyl)-3H-imidazo[4,5-c]pyridin-4-yloxy)ethyl)pyrrolidin-2-one] as the compound, how does the IC50 read?
Answer: 513 nM

Question: For `C[C@@H](Oc1cc(-c2cc3c(cnn3C)s2)cc2ncsc12)[C@H]1CNC(=O)C1` [(R)-4-((R)-1-(5-(1-methyl-1H-thieno[3,2-c]pyrazol-5-yl)benzo[d]thiazol-7-yloxy)ethyl)pyrrolidin-2-one], which IC50 is on record?
Answer: 7.68 nM

Question: With `CC(C)n1cc(-c2cc(O[C@H](C)[C@H]3CNC(=O)C3)c3ccnn3c2)cn1` [(R)-4-((R)-1-(6-(1-isopropyl-1H-pyrazol-4-yl)pyrazolo[1,5-a]pyridin-4-yloxy)ethyl)pyrrolidin-2-one] as the compound, how does the IC50 read?
Answer: 4.15 nM

Question: Which IC50 does the source give for `C[C@@H](Oc1cc(-c2ccc(N3CCN(C4CCOCC4)CC3)cn2)cc2ncsc12)[C@H]1CNC(=O)C1` (stereo in doubt) [(R)-4-((R)-1-((5-(5-(4-(tetrahydro-2H-pyran-4-yl)piperazin-1-yl)pyridin-2-yl)benzo[d]thiazol-7-yl)oxy)ethyl)pyrrolidin-2-one] here?
Answer: 2.62 nM

Question: With `COc1ccc(-c2cc(O[C@H](C)[C@H]3CNC(=O)C3)c3ccnn3c2)nc1OC` [(R)-4-((R)-1-((6-(5,6-dimethoxypyridin-2-yl)pyrazolo[1,5-a]pyridin-4-yl)oxy)ethyl)pyrrolidin-2-one] as the compound, how does the IC50 read?
Answer: 4.84 nM

Question: For `COc1ccc(-c2cc3ncn(C)c3c(O[C@H](C)[C@H]3CNC(=O)C3)n2)cc1C#N`, which IC50 is on record?
Answer: 16.7 nM

Question: Which IC50 does the source give for `C[C@@H](Oc1nc(-c2cnc(C(C)(C)C)s2)cc2ncn(C)c12)[C@H]1CNC(=O)C1` [(R)-4-((R)-1-(6-(2-tert-butylthiazol-5-yl)-3-methyl-3H-imidazo[4,5-c]pyridin-4-yloxy)ethyl)pyrrolidin-2-one] here?
Answer: 9.73 nM

Question: Which IC50 does the source give for `C[C@@H](Oc1nc(-c2cnn(C3CC3)c2)cc2ncn(C)c12)[C@H]1CNC(=O)C1` [(R)-4-((R)-1-(6-(1-cyclopropyl-1H-pyrazol-4-yl)-3-methyl-3H-imidazo[4,5-c]pyridin-4-yloxy)ethyl)pyrrolidin-2-one] here?
Answer: 14 nM

same assay, conditions: table 'ALL NEW COMPOUNDS IN 2014', 20 μM ATP, 1 μM biotinylated peptide, 0.015 nM Syk, 30 min at room temperature, read-out: Syk IC50

Question: How did the IC50 turn out when `CC(C)S(=O)(=O)N1CCN(c2ccc(-c3cc4ncn(C5CC5)c4c(O[C@H](C)[C@H]4CNC(=O)C4)n3)cc2)CC1` [(R)-4-((R)-1-((3-cyclopropyl-6-(4-(4-(isopropylsulfonyl)piperazin-1-yl)phenyl)-3H-imidazo[4,5-c]pyridin-4-yl)oxy)ethyl)pyrrolidin-2-one] was run?
Answer: 1.12 nM

Question: `COc1cc(-c2cc(O[C@H](C)[C@H]3CNC(=O)C3)c3c(c2)ncn3C2CC2)ccc1OC(F)F` [(R)-4-((R)-1-((1-cyclopropyl-5-(4-(difluoromethoxy)-3-methoxyphenyl)-1H-benzo[d]imidazol-7-yl)oxy)ethyl)pyrrolidin-2-one] was tested. Which IC50 did it give?
Answer: 23.1 nM

Question: `Cc1nc(-c2cc(O[C@H](C)[C@H]3CNC(=O)C3)c3c(c2)ncn3C2CC2)sc1C` [(R)-4-((R)-1-((1-cyclopropyl-5-(4,5-dimethylthiazol-2-yl)-1H-benzo[d]imidazol-7-yl)oxy)ethyl)pyrrolidin-2-one] was tested. Which IC50 did it give?
Answer: 1.41 nM

Question: How did the IC50 turn out when `C[C@@H](Oc1nc(-c2ccc3c(c2)N(C)C(=O)C32CN(C)C2)cc2ncn(C3CC3)c12)[C@H]1CNC(=O)C1` [6′-(3-cyclopropyl-4-((R)-1-((R)-5-oxopyrrolidin-3-yl)ethoxy)-3H-imidazo[4,5-c]pyridin-6-yl)-1,1′-dimethylspiro[azetidine-3,3′-indolin]-2′-one] was run?
Answer: 7.55 nM

Question: With `C[C@@H](Oc1cc(-c2cccc(N)n2)cc2ncn(C3CC3)c12)[C@H]1CNC(=O)C1` [(R)-4-((R)-1-((5-(6-aminopyridin-2-yl)-1-cyclopropyl-1H-benzo[d]imidazol-7-yl)oxy)ethyl)pyrrolidin-2-one] as the compound, how does the IC50 read?
Answer: 8.43 nM

Question: How did the IC50 turn out when `C[C@@H](Oc1cc(-c2ccc(N3CCN(C4COC4)CC3)cn2)cc2ncn(C3CC3)c12)[C@H]1CNC(=O)C1` [(R)-4-((R)-1-((1-cyclopropyl-5-(5-(4-(oxetan-3-yl)piperazin-1-yl)pyridin-2-yl)-1H-benzo[d]imidazol-7-yl)oxy)ethyl)pyrrolidin-2-one] was run?
Answer: 4.72 nM

Question: `C[C@@H](Oc1cc(-c2cnn(C)c2)cc2ncn(C3CC3)c12)[C@H]1CNC(=O)C1` [(R)-4-((R)-1-((1-cyclopropyl-5-(1-methyl-1H-pyrazol-4-yl)-1H-benzo[d]imidazol-7-yl)oxy)ethyl)pyrrolidin-2-one] was tested. Which IC50 did it give?
Answer: 4.44 nM

Question: How did the IC50 turn out when `C[C@@H](Oc1nc(-c2ccc(N3CCN(C4COC4)CC3)nc2)cc2ncn(C3CC3)c12)[C@H]1CNC(=O)C1` [(R)-4-((R)-1-((3-cyclopropyl-6-(6-(4-(oxetan-3-yl)piperazin-1-yl)pyridin-3-yl)-3H-imidazo[4,5-c]pyridin-4-yl)oxy)ethyl)pyrrolidin-2-one] was run?
Answer: 3.63 nM

Question: Which IC50 does the source give for `Cc1cc(-c2cc(O[C@H](C)[C@H]3CNC(=O)C3)c3c(c2)ncn3C2CC2)nn1C` [(R)-4-((R)-1-((1-cyclopropyl-5-(1,5-dimethyl-1H-pyrazol-3-yl)-1H-benzo[d]imidazol-7-yl)oxy)ethyl)pyrrolidin-2-one] here?
Answer: 2.15 nM

Question: `C[C@@H](Oc1nc(-c2ccc(N3CC4CC(C3)N4)cc2)cc2ncn(C3CC3)c12)[C@H]1CNC(=O)C1` [(4R)-4-((1R)-1-((6-(4-(3,6-diazabicyclo[3.1.1]heptan-3-yl)phenyl)-3-cyclopropyl-3H-imidazo[4,5-c]pyridin-4-yl)oxy)ethyl)pyrrolidin-2-one] was tested. Which IC50 did it give?
Answer: 2.29 nM

Question: For `C[C@@H](Oc1nc(-c2ccc(N3CCN(C4COC4)CC3)nc2)cc2ncn(C(F)F)c12)[C@H]1CNC(=O)C1` [(R)-4-((R)-1-((3-(difluoromethyl)-6-(6-(4-(oxetan-3-yl)piperazin-1-yl)pyridin-3-yl)-3H-imidazo[4,5-c]pyridin-4-yl)oxy)ethyl)pyrrolidin-2-one], which IC50 is on record?
Answer: 2.9 nM

Question: `C[C@@H](Oc1nc(-c2ccc(C3CCN(C4COC4)CC3)cc2)cc2ncn(C3CC3)c12)[C@H]1CNC(=O)C1` [(R)-4-((R)-1-((3-cyclopropyl-6-(4-(1-(oxetan-3-yl)piperidin-4-yl)phenyl)-3H-imidazo[4,5-c]pyridin-4-yl)oxy)ethyl)pyrrolidin-2-one] was tested. Which IC50 did it give?
Answer: 2.31 nM

Question: With `C[C@@H](Oc1cc(-c2ccc(N3CCN(C4COC4)CC3)cc2F)cc2ncn(C3CC3)c12)[C@H]1CNC(=O)C1` [(R)-4-((R)-1-((1-cyclopropyl-5-(2-fluoro-4-(4-(oxetan-3-yl)piperazin-1-yl)phenyl)-1H-benzo[d]imidazol-7-yl)oxy)ethyl)pyrrolidin-2-one] as the compound, how does the IC50 read?
Answer: 2.76 nM

Question: `Cc1cc(-c2cc3ncn(C4CC4)c3c(O[C@H](C)[C@H]3CNC(=O)C3)n2)sn1` [(R)-4-((R)-1-((3-cyclopropyl-6-(3-methylisothiazol-5-yl)-3H-imidazo[4,5-c]pyridin-4-yl)oxy)ethyl)pyrrolidin-2-one] was tested. Which IC50 did it give?
Answer: 2.27 nM

Question: Which IC50 does the source give for `C[C@@H](Oc1nc(-c2ccc(N3CC4CC(C3)O4)cc2)cc2ncn(C3CC3)c12)[C@H]1CNC(=O)C1` [(4R)-4-((1R)-1-((6-(4-(6-oxa-3-azabicyclo[3.1.1]heptan-3-yl)phenyl)-3-cyclopropyl-3H-imidazo[4,5-c]pyridin-4-yl)oxy)ethyl)pyrrolidin-2-one] here?
Answer: 3.21 nM

Question: How did the IC50 turn out when `C[C@@H](Oc1nc(-c2ccncc2)cc2ncn(C3CC3)c12)[C@H]1CNC(=O)C1` [(R)-4-((R)-1-((3-cyclopropyl-6-(pyridin-4-yl)-3H-imidazo[4,5-c]pyridin-4-yl)oxy)ethyl)pyrrolidin-2-one] was run?
Answer: 11.9 nM
